The text below walks through data of patent US7304093B2, “Ketone compounds and compositions for cholesterol management and related uses” (Esperion Therapeutics, Inc., priority 2000, dated 2007).

Like-named read-outs stand apart in the source and are kept apart here.

The subject of one test is primary rat hepatocytes. Nature of the test: Inhibition of lipid synthesis ([1-14C]-acetate incorporation) in primary cultures of rat hepatocytes. It is filed as cell-based. To be noted: Hepatocyte, 4 h incubation with [1-14C]-acetate. The method, then: Compounds were tested for inhibition of lipid synthesis in primary cultures of rat hepatocytes. Male Sprague-Dawley rats were anesthetized with intraperitoneal injection of sodium pentobarbital (80 mg/kg). Rat hepatocytes were isolated essentially as described by the method of Seglen (Seglen, P. O. Hepatocyte suspensions and cultures as tools in experimental carcinogenesis. J. Toxicol. Environ. Health 1979, 5, 551-560). Hepatocytes were suspended in Dulbecco's Modified Eagles Medium containing 25 mM D-glucose, 14 mM HEPES, 5 mM L-glutamine, 5 mM leucine, 5 mM alanine, 10 mM lactate, 1 mM pyruvate, 0.2% bovine serum albumin, 17.4 mM non-essential amino acids, 20% fetal bovine serum, […] and 20 μg/mL gentamycin) and plated at a density of 1.5×10^5 cells/cm^2 on collagen-coated 96-well plates. Four hours after plating, media was replaced with the same media without serum. Cells were grown overnight to allow formation of monolayer cultures. Lipid synthesis incubation conditions were initially assessed to ensure the linearity of [1-^14C]-acetate incorporation into hepatocyte lipids for up to 4 hours. Hepatocyte lipid synthesis inhibitory activity was assessed during incubations in the presence of 0.25 μCi [1-^14C]-acetate/well (final radiospecific activity in assay is 1 Ci/mol) and 0, 1, 3, 10, 30, 100 or 300 μM of compounds for 4 hours. At the end of the 4-hour incubation period, medium was discarded and cells were washed twice with ice-cold phosphate buffered saline and stored frozen prior to analysis. To determine total lipid synthesis, 170 μl of MicroScint-E® and 50 μl water was added to each well to extract and partition the lipid soluble products to the upper organic phase containing the scintillant. Lipid radioactivity was assessed by scintillation spectroscopy in a Packard TopCount NXT.

The subject of the next test is female obese Zucker rats. In words: Serum lipid and glycemic control variables in chow-fed obese female Zucker rats, daily oral gavage for two weeks. The test is classed as in vivo, rat. To be noted: Rattus norvegicus, Table 9; for change in vivo at 100 mg/kg: 100 mg/kg daily oral; for change in vivo at 30 mg/kg: 30 mg/kg daily oral. The method, then: Ten- to twelve-week old (400-500 grams) female Zucker fatty rats Cr1: (Zuc)-faBR were obtained from Charles River Laboratories. Animals were acclimated to the laboratory environment for seven days. During the acclimation and study period, animals were housed by group in shoebox polycarbonate cages on Cellu-Dri bedding. The temperature and humidity in the animals' quarters (68-78° F.; 30-75% RH) were monitored and the airflow in the room was sufficient to provide several exchanges per hour with 100% fresh filtered air. An automatic timing device provided an alternating 12-hour cycle of light and dark. Rats received pelleted Purina Laboratory Rodent Chow® (5001) prior to and during the drug intervention period except for a 6-hour phase prior to blood sampling. Fresh water was supplied ad libitum via an automatic watering system. Compounds were dissolved, suspended by mixing in a dosing vehicle consisting of 1.5% carboxymethylcellulose/0.2% Tween 20 or 20% ethanol and 80% polyethylene glycol-200 [v/v]. Dose volume of vehicle or vehicle plus each compound was set at 0.25% of body weight in order to deliver the appropriate dose. Doses were administered daily by oral gavage, approximately between 8-10 AM. Regarding blood sampling, animals were fasted for 6 hours prior to all blood collections. Prior to and after 7 days of dosing, a 1.0- to 2.0-mL sample of blood was collected by administering O2/CO2 anesthesia and bleeding from the orbital venous plexus. Following 14 days of dosing, blood was collected by cardiac puncture after euthanasia with CO2. All blood samples were processed for separation of serum and stored at −80° C. until analysis. Commercially available kits were used to determine serum triglycerides (Roche Diagnostic Corporation, Kit No. 148899 or Boehringer Mannheim, Kit No. 1488872), total cholesterol (Roche Diagnostic Corporation, Kit No. 450061), non-esterified fatty acids (Wako Chemicals, Kit No. 994-75409) and β-hydroxybutyrate (Wako Chemicals, Kit No. 417-73501 or Sigma Kit. No. 310-0) on a Hitachi 912 Automatic Analyzer (Roche Diagnostic Corporation). In some instances, an in-house cholesterol reagent was used to determine total serum cholesterol levels. Serum lipoprotein cholesterol levels were determined by lipoprotein profile analysis. Lipoprotein profiles were analyzed using gel-filtration chromatography on a Superose 6HR (1×30 cm) column equipped with on-line detection of total cholesterol as described by Kieft et al (Kieft, K. A.; Bocan, T. M.; Krause, B. R. Rapid on-line determination of cholesterol distribution among plasma lipoproteins after high-performance gel filtration chromatography. J. Lipid Res. 1991, 32, 859-866.). The total cholesterol content of each lipoprotein was calculated by multiplying the independent values determined for serum total cholesterol by the percent area of each lipoprotein in the profile. The percent body weight gain and the ratio of liver to body weight is also determined. Selected data are shown as absolute values or as a percent change of the pretreatment values in Tables 8 and 9.
Select compounds (214c, 210c, and 210g) were further evalutated in the Zucker rat by performing a full dose response and measuring additional scrum variables including markers for diabetes (Tables 10-12).

Where [1] appears, read: Table 7, ranges: confidence of estimate insufficient to assign a value.
The mark [2] stands for this setting: 168 h, 1 wk, read-out: HDL-Cholesterol, Percent Change from Pre-Treatment.
[3] abbreviates: 168 h, 1 wk, read-out: NonHDL-Cholesterol, Percent Change from Pre-Treatment.
Where [4] appears, read: 168 h, 1 wk, read-out: TG, Percent Change from Pre-Treatment.
Setting [5] is: 336 h, 2 wk, read-out: HDL-Cholesterol, Percent Change from Pre-Treatment.
[6] abbreviates: 336 h, 2 wk, read-out: NonHDL-Cholesterol, Percent Change from Pre-Treatment.
Setting [7] is: 336 h, 2 wk, read-out: TG, Percent Change from Pre-Treatment.

For orientation: IC50 means the concentration at which inhibition is half-maximal. In the case of `CC(CO)(CCCCCC(=O)CCCCCC(C)(CO)c1ccccc1)c1ccccc1` (centres unmarked) [Compound 214h, 1,15-Dihydroxy-2,14-dimethyl-2,14-diphenylpentadecan-8-one], the IC50 with primary rat hepatocytes (setting [1]) is 93 µM. Further, the change in vivo at 100 mg/kg worked out at 2% in the test on female obese Zucker rats (setting [2]); 29% in the test with female obese Zucker rats (setting [3]); 24% with female obese Zucker rats (setting [4]); 10% in the test with female obese Zucker rats (setting [5]); 9% with female obese Zucker rats (setting [6]); 1% with female obese Zucker rats (setting [7]).
For `CC(CO)(CCCC(=O)CCCC(C)(CO)c1ccccc1)c1ccccc1` (centres unmarked) [Compound 214b, 1,11-Dihydroxy-2,10-dimethyl-2,10-diphenylundecan-6-one], in the test on primary rat hepatocytes (setting [1]), the IC50 is 100 to 300 µM. Further, the change in vivo at 100 mg/kg in the test with female obese Zucker rats (setting [2]) is -14%; in the test on female obese Zucker rats (setting [3]), -18%; in the test on female obese Zucker rats (setting [4]), -20%; in the test on female obese Zucker rats (setting [5]) it was -11%; with female obese Zucker rats (setting [6]), -32%; with female obese Zucker rats (setting [7]) it was -17%.
With `CC(C)(CO)CCCCCCC(=O)CCCCCCC(C)(C)CO` [Compound 214i, 1,17-Dihydroxy-2,2,16,16-tetramethylheptadecan-9-one], in the test with primary rat hepatocytes (setting [1]), the IC50 is 2 µM. Besides, the change in vivo at 30 mg/kg was 85% in the test on female obese Zucker rats (setting [2]); -50% in the test with female obese Zucker rats (setting [3]); -58% with female obese Zucker rats (setting [4]); 61% with female obese Zucker rats (setting [5]); -32% in the test with female obese Zucker rats (setting [6]); -33% with female obese Zucker rats (setting [7]).
Turning to `CC(C)(CCCCCCC(=O)CCCCCCC(C)(C)C(=O)O)C(=O)O` [Compound 210i, 2,2,16,16-Tetramethyl-9-oxoheptadecanedioic acid], the IC50 in the test on primary rat hepatocytes (setting [1]) was 9 µM.
In the case of `CC(C)Cc1ccc(C(C)(CCCCC(=O)CCCCC(C)(C(=O)O)c2ccc(CC(C)C)cc2)C(=O)O)cc1` (centres unmarked) [Compound 210f, 2,12-Bis-(4-isobutylphenyl)-2,12-dimethyl-7-oxotridecanedioic acid], the IC50 in the test with primary rat hepatocytes (setting [1]) was 100 to 300 µM. The change in vivo at 100 mg/kg is 11% in the test with female obese Zucker rats (setting [2]); -40% with female obese Zucker rats (setting [3]); -63% in the test with female obese Zucker rats (setting [4]); 62% with female obese Zucker rats (setting [5]); -44% with female obese Zucker rats (setting [6]); -66% in the test on female obese Zucker rats (setting [7]).
For `CC(C)(CO)CCCCCC(=O)CCCCC(C)(C)CO` [Compound 219, 1,14-Dihydroxy-2,2,13,13-tetramethyltetradecan-7-one], the IC50 with primary rat hepatocytes (setting [1]) was 2 µM. For the same molecule, the change in vivo at 100 mg/kg was 78% with female obese Zucker rats (setting [2]); -70% in the test on female obese Zucker rats (setting [3]); -85% in the test with female obese Zucker rats (setting [4]); 78% with female obese Zucker rats (setting [5]); -78% with female obese Zucker rats (setting [6]); -87% in the test on female obese Zucker rats (setting [7]).
Turning to `CC(C)Cc1ccc(C(C)(CO)CCCCC(=O)CCCCC(C)(CO)c2ccc(CC(C)C)cc2)cc1` (centres unmarked) [Compound 214f, 1,13-Dihydroxy-2,12-bis-(4-isobutylphenyl)-2,12-dimethyltridecan-7-one], the change in vivo at 100 mg/kg in the test with female obese Zucker rats (setting [2]) was -5%; in the test with female obese Zucker rats (setting [3]), 28%; in the test on female obese Zucker rats (setting [4]) it was -11%; in the test on female obese Zucker rats (setting [5]), 6%; in the test on female obese Zucker rats (setting [6]), 34%; in the test with female obese Zucker rats (setting [7]) it was -15%.
In the test with primary rat hepatocytes (Table 6), `CCOC(=O)C(C)(C)CCCCCCCC(=O)CCCCCCCC(C)(C)C(=O)OCC` [Compound 106n, Diethyl 10-oxo-2,2,18,18-tetramethyl-nonadecanedioate] had an IC50 of 13 µM.
Take `CC(C)(CO)CCCCC(=O)CCCCC(C)(CO)c1ccccc1` (centres unmarked) [Compound 218, 1,13-Dihydroxy-2,2,12-trimethyl-12-phenyltridecan-7-one]: the 50% inhibitory concentration (IC50) in the test on primary rat hepatocytes (setting [1]) is 1 µM. For the same molecule, the change in vivo at 30 mg/kg was -18% with female obese Zucker rats (setting [2]); 17% in the test with female obese Zucker rats (setting [3]); 18% in the test with female obese Zucker rats (setting [4]); -5% in the test with female obese Zucker rats (setting [5]); -8% with female obese Zucker rats (setting [6]); -7% in the test on female obese Zucker rats (setting [7]).
For the molecule `CC(C)(C)OC(=O)C1(CCCCC(=O)CCCCC2(C(=O)OC(C)(C)C)CC2)CC1` [Compound 106d, t-Butyl 1-[9-[1-(tert-butoxycarbonyl)cyclopropyl]-5-oxononyl]-1-cyclopropanecarboxylate], inhibition in the test on primary rat hepatocytes (Table 6) was half-maximal at 35 µM (IC50).
Take `CC(C)(CO)CCCCCC(=O)CCCCCC(C)(C)CO` [Compound 214g, 1,15-Dihydroxy-2,2,14,14-tetramethylpentadecan-8-one]: in the test with primary rat hepatocytes (setting [1]), the IC50 is 3 µM. The change in vivo at 100 mg/kg with female obese Zucker rats (setting [2]) is 76%; with female obese Zucker rats (setting [3]), -91%; with female obese Zucker rats (setting [4]) it was -92%; in the test with female obese Zucker rats (setting [5]), 135%; with female obese Zucker rats (setting [6]), -88%; in the test on female obese Zucker rats (setting [7]) it was -92%.
In the case of `Cc1ccc(C(C)(CO)CCCCC(=O)CCCCC(C)(CO)c2ccc(C)cc2)cc1` (centres unmarked) [Compound 214e, 1,13-Dihydroxy-2,12-dimethyl-2,12-di-p-tolyltridecan-7-one], the half-inhibitory concentration (IC50) in the test with primary rat hepatocytes (setting [1]) is 100 to 300 µM.
In the case of `CC(CCCCC(=O)CCCCC(C)(C(=O)O)c1ccccc1)(C(=O)O)c1ccccc1` (centres unmarked) [Compound 210d, 2,12-Dimethyl-7-oxo-2,12-diphenyltridecanedioic acid], the change in vivo at 100 mg/kg with female obese Zucker rats (setting [2]) is 43%; in the test on female obese Zucker rats (setting [3]), 36%; in the test on female obese Zucker rats (setting [4]), -36%; in the test on female obese Zucker rats (setting [5]) it was 45%; in the test with female obese Zucker rats (setting [6]) it was 79%; in the test on female obese Zucker rats (setting [7]) it was -8%.
